Assay results published in ChEMBL document CHEMBL3351615, “Design, synthesis and evaluation of novel HDAC inhibitors as potential antitumor agents” (Bioorg Med Chem Lett, 2014).

Columns and labels:
Histone deacetylase 1 = Histone deacetylase 1 (Homo sapiens, UniProt Q13547); test: Inhibition of HDAC1 (unknown origin) using Boc-Lys(Ac)-AMC as substrate by fluorescence assay
cells [1] = type: functional; settings: Homo sapiens, HCT-116, 72 h
Description: Growth inhibition of human HCT116 cells after 72 hrs by CellTiter Glo assay

cells [2] = type: functional; settings: Homo sapiens, PC-3, 72 h
Description: Growth inhibition of human PC3 cells after 72 hrs by CellTiter Glo assay

cells [3] = type: functional; settings: Homo sapiens, HL-60, 72 h
Description: Growth inhibition of human HL60 cells after 72 hrs by CellTiter Glo assay

[4] = Antitumor activity against human HCT116 cells xenografted in mouse assessed as tumor growth reduction at 50 mg/kg, po qd for 3 weeks relative to vehicle-treated control; type: functional; settings: HCT-116, 504 h, read-out: TGI
[5] = Antitumor activity against human HCT116 cells xenografted in mouse assessed as tumor growth reduction at 75 mg/kg, po qd as intermittent dosing schedule with 3 days on plus 3 days off for 3 weeks relative to vehicle-treated control; type: functional; settings: HCT-116, read-out: TGI
Mus musculus [6] = test: Toxicity in human HCT116 cells xenografted mouse at 200 mg/kg, po qd measured after 10 days relative to vehicle-treated control; type: organism-based, HCT-116; set-up: dose 200 mg/kg, route oral; settings: in vivo, 240 h
[7] = Antitumor activity against human HCT116 cells xenografted in mouse assessed as tumor growth reduction at 200 mg/kg, po qd measured after 10 days relative to vehicle-treated control; type: functional; settings: HCT-116, 240 h, read-out: TGI
hERG (KCNH2) = hERG (KCNH2) (Homo sapiens, UniProt Q12809); test: Inhibition of human ERG at 10 uM
Sequence of hERG (KCNH2) (Q12809 whole entry): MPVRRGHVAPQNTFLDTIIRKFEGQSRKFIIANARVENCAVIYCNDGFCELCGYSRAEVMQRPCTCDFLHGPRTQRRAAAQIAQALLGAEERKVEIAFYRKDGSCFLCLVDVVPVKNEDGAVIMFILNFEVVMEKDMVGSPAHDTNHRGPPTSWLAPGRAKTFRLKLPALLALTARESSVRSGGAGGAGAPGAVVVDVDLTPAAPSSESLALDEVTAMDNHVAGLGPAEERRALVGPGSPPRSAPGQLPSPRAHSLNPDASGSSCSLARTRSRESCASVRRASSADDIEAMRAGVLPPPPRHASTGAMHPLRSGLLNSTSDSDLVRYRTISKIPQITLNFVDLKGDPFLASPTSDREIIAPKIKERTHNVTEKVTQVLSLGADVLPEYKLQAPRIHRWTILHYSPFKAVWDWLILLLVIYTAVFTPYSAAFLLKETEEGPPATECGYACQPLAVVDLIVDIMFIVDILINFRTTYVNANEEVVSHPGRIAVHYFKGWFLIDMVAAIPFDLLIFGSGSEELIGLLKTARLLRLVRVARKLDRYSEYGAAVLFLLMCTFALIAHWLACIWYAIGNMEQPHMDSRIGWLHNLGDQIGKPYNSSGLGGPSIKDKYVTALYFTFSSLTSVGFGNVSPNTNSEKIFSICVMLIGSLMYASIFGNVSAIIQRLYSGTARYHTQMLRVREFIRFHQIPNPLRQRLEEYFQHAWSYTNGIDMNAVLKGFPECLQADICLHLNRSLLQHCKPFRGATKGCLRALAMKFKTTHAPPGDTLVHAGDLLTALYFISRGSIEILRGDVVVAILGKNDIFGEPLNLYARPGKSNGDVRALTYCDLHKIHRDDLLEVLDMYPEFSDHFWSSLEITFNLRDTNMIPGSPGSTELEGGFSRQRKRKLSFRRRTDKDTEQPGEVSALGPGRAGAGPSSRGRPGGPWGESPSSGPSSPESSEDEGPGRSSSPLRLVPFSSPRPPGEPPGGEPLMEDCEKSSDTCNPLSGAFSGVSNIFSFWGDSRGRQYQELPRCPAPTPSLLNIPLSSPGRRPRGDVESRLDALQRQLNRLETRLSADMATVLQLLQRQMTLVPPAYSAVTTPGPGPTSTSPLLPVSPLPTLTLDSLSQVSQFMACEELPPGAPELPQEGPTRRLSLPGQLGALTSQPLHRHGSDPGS

HCT-116 = test: Ratio of vorinostat IC50 to compound IC50 for human HCT116 cells after 72 hrs by CellTiter Glo assay; type: functional
Mus musculus [8] = test: Toxicity in human HCT116 cells xenografted mouse assessed as body weight loss at 50 mg/kg, po qd as intermittent dosing schedule with 3 days on plus 3 days off for 3 weeks relative to vehicle-treated control; type: organism-based, HCT-116; set-up: dose 50 mg/kg, route oral; settings: in vivo
Mus musculus [9] = test: Toxicity in human HCT116 cells xenografted mouse assessed as body weight loss at 50 mg/kg, po qd for 3 weeks relative to vehicle-treated control; type: organism-based, HCT-116; set-up: dose 50 mg/kg, route oral; settings: in vivo, 504 h

Sequence of Histone deacetylase 1 (Q13547 whole entry): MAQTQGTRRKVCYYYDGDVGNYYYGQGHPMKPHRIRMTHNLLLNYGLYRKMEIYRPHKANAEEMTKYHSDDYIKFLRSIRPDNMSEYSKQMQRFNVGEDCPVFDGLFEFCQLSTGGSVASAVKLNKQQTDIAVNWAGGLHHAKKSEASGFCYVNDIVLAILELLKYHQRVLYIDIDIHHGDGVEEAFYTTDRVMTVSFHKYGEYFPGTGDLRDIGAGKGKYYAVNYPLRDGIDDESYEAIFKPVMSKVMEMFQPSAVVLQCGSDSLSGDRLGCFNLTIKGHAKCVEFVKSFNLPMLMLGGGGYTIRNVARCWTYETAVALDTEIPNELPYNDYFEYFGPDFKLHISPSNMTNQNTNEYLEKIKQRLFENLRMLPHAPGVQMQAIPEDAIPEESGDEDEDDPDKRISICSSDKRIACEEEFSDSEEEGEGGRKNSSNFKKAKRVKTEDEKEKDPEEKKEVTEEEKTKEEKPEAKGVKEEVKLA

| Compound | IC50 (Histone deacetylase 1) [nM] | GI50 (cells [1]) [nM] | other results |
| --- | --- | --- | --- |
| CN(C)Cc1cccc(CN2CCN(c3ccc(C(=O)NO)cc3)C2=O)c1 | 23 | – | – |
| Cn1cc(CCN2CCN(c3ccc(C(=O)NO)cc3)C2=O)c2ccccc21 | 4 | 240 | GI50 (cells [2]): 210 nM; GI50 (cells [3]): 480 nM |
| O=C(NO)c1ccc(N2CCN(Cc3ccc(C(F)(F)F)cc3)C2=O)cc1 | 80 | – | – |
| O=C(NO)c1ccc(N2CCN(Cc3ccncc3)C2=O)cc1 | 41 | – | – |
| O=C(NO)c1ccc(N2CCN(CCc3ccccc3)C2=O)cc1 | 13 | 650 | – |
| O=C(NO)c1ccc(N2CCN(Cc3cccc4ccccc34)C2=O)cc1 | 9.5 | – | – |
| CCN(CC)Cc1ccc2cc(CN3CCN(c4ccc(C(=O)NO)cc4)C3=O)ccc2c1 | 2.7 | 110 | inhibition in vivo at 50 mg/kg [4]: 45%; inhibition in vivo at 75 mg/kg [5]: 54%; Activity (Mus musculus [6]): Toxic; inhibition in vivo at 200 mg/kg [7]: 50%; inhibition at 10 µM (hERG (KCNH2)): 27%; Ratio IC50 (HCT-116): 6; Activity (Mus musculus [8]): < 15%; Activity (Mus musculus [9]): < 15%; GI50 (cells [2]): 100 nM; GI50 (cells [3]): 86 nM |
| O=C(NO)c1ccc(N2CCN(Cc3cccnc3)C2=O)cc1 | 42 | – | – |
| O=C(NO)c1ccc(N2CCN(Cc3ccc(F)cc3)C2=O)cc1 | 21 | – | – |
| O=C(NO)c1ccc(N2CCN(Cc3ccc4ccccc4c3)C2=O)cc1 | 5.4 | 210 | GI50 (cells [2]): 380 nM; GI50 (cells [3]): 360 nM |
| O=C(NO)c1ccc(N2CCN(CCCN3CCCC3)C2=O)cc1 | 114 | – | – |
| O=C(NO)c1ccc(N2CCN(c3cccnc3)C2=O)cc1 | 182 | – | – |
| CN(C)Cc1ccc(CN2CCN(c3ccc(C(=O)NO)cc3)C2=O)cc1 | 25 | – | – |
| CC(C)CN1CCN(c2ccc(C(=O)NO)cc2)C1=O | 250 | – | – |
| COc1ccc(CN2CCN(c3ccc(C(=O)NO)cc3)C2=O)cc1 | 12 | 470 | – |
| O=C(NO)c1ccc(N2CCN(Cc3cccc4ncccc34)C2=O)cc1 | 5.4 | 270 | GI50 (cells [2]): 340 nM; GI50 (cells [3]): 250 nM |
| CN(C)c1cccc(CN2CCN(c3ccc(C(=O)NO)cc3)C2=O)c1 | 9.5 | 330 | GI50 (cells [2]): 430 nM; GI50 (cells [3]): 440 nM |
| O=C(NO)c1ccc(N2CCN(Cc3ccccc3)C2=O)cc1 | 17 | 850 | – |
| O=C(NO)c1ccc(N2CCN(CCCN3CCOCC3)C2=O)cc1 | 125 | – | – |
| O=C(NO)c1ccc(N2CCN(c3cnc4ccccc4c3)C2=O)cc1 | 152 | – | – |
